Experiment in all cases: SelectScreen Kinase Profiling, single point inhibition and IC50 for off-target kinases
Common to all, as to assay type: biochemical

Experiment [1] has as its target off-target kinases (Homo sapiens, UniProt P42336). Conditions: PIK3CA/PIK3R1 (p110 alpha/p85 alpha); Cmpd1 1000 μM; ATP Km app; Adapta. The protocol:
(§1) Biochemical single point inhibition and IC50 concentrations for TBK1, IKKε (IKBKE), and off-target kinases were determined at ThermoFisher Scientific using SelectScreen Kinase Profiling Services (Madison, Wis., USA) (Tables S4A and S4B-1-7). To determine cellular potency, the human colorectal cancer carcinoma cell line HCT116 (ATCC, Manassas, Va.) was maintained in T175 flasks in complete RPMI medium; RPMI 1640 supplemented with 10% FBS, 1× Penicillin-Streptomycin solution and 1×MEM (non-essential amino acids). HCT116 cells were grown to 90-95% confluency in T175 flasks containing complete RPMI medium and transfected in bulk using Lipofectamine 2000 (Invitrogen, Carlsbad, Calif.) with 70 μg of ISG54-luciferase reporter plasmid (Elim Biopharmaceuticals Inc., Hayward, Calif.). The reporter plasmid contains a luciferase gene expression cassette under the transcriptional regulation of the promoter of the human interferon stimulated gene 54 (ISG54). Transfection of the cells was allowed to take place for 6 hours, after which the cells were harvested by treatment with 0.25% trypsin EDTA (Corning Inc., Corning, N.Y.). Trypsinized cells were added to 384-well poly-d-lysine treated black clear bottom tissue culture assay plates (Greiner Bio-One GmbH, Kremsmünster, Austria) at a density of 20,000 cells/well in 80 μL of complete RPMI medium and incubated overnight. After 16-18 hours post-transfection, the assay plates were washed with PBS (Corning Inc., Corning, N.Y.), followed by addition of 80 μL/well of serum-free RPMI 1640 medium containing 1× Penicillin-Streptomycin solution, 1×MEM and 350 nL of DMSO or titrations of Compound 1. Compound 1 titrations were generated by 1.5-fold dilution steps in two overlapping serial dilution series to generate a 40-point compound dose range. After incubation at 37° C. for 1 hour, the cells were stimulated with Poly(I:C) (InvivoGen, San Diego, Calif.) at a final concentration of 15 μg/mL in Optimem media (Life Technologies, Rockville, Md.). The assay plates were incubated for 5 hours at 37° C., followed by addition of One-Glo luciferase firefly reagent (Promega, Madison, Wis.) at 1:1 volume/well and luminescence was measured in an EnVision Multilabel Plate Reader (PerkinElmer, Santa Clara, Calif.). The EC50 values were calculated from the fit of the dose-response curves to a four-parameter equation. All EC50 values represent geometric mean values of a minimum of four determinations.

For experiment [2], the target named is T1, off-target kinases (Homo sapiens, UniProt Q8IVH8).
T1 sequence (Q8IVH8 1-894): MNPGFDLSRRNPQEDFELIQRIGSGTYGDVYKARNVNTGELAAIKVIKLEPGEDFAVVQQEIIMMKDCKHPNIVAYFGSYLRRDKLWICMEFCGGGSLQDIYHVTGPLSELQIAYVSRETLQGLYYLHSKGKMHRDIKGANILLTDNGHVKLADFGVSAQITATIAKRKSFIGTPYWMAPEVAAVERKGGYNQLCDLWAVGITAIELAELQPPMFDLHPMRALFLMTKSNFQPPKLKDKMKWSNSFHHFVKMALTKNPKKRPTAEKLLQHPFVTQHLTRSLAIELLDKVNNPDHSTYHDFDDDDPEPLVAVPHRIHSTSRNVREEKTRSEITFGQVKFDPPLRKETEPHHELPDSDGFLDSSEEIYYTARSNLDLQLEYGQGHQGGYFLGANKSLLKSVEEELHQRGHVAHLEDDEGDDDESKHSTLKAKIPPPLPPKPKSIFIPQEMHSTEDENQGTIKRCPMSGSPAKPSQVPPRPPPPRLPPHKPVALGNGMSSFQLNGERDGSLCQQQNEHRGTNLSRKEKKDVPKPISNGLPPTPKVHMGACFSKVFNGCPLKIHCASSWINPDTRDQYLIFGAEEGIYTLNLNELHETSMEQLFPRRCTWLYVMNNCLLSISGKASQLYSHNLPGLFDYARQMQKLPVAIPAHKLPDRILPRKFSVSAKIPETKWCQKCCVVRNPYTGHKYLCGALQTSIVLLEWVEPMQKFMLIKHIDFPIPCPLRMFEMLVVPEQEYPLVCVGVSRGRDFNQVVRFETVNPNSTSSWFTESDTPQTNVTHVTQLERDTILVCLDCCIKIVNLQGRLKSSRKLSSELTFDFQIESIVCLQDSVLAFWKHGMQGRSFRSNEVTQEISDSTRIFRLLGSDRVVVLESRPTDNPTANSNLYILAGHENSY
Conditions: MAP4K3 (GLK), LanthaScreen Binding. The protocol: as §1
(In general: TR-FRET usually uses a lanthanide donor and a delayed reading to cut background.)

Experiment [3] has as its target off-target kinases (Homo sapiens, UniProt P36888, D835Y). The note with it: FLT3 D835Y, ATP Km app, ZLYTE. The protocol:
as §1

Experiment [4] has as its target off-target kinases (Homo sapiens, UniProt Q05397). Conditions: PTK2 (FAK), ZLYTE, ATP Km app. Here is the method:
as §1

Experiment [5] addresses T2, off-target kinases (Homo sapiens, UniProt O94768).
T2 sequence (O94768 1-372): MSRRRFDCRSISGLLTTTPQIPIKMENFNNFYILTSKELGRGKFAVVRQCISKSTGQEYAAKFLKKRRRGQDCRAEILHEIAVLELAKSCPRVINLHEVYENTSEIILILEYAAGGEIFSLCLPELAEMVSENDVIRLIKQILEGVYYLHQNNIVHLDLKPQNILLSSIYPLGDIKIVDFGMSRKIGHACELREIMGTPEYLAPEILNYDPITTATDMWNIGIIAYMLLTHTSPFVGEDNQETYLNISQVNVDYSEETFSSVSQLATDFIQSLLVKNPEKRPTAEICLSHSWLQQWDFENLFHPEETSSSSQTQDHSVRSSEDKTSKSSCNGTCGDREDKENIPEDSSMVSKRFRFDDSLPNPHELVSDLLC
Conditions: STK17B (DRAK2), LanthaScreen Binding. Here is the method:
as §1

For experiment [6], the target named is off-target kinases (Homo sapiens, UniProt P10721, T670I). Conditions: KIT T670I (mutant), ZLYTE, ATP Km app. The protocol: as §1

Like-named read-outs stand apart in the source and are kept apart here.

The inhibition is the percentage by which the read-out fell short of the control.

off-target kinases (Homo sapiens, UniProt Q05397), sequence (Q05397 whole entry): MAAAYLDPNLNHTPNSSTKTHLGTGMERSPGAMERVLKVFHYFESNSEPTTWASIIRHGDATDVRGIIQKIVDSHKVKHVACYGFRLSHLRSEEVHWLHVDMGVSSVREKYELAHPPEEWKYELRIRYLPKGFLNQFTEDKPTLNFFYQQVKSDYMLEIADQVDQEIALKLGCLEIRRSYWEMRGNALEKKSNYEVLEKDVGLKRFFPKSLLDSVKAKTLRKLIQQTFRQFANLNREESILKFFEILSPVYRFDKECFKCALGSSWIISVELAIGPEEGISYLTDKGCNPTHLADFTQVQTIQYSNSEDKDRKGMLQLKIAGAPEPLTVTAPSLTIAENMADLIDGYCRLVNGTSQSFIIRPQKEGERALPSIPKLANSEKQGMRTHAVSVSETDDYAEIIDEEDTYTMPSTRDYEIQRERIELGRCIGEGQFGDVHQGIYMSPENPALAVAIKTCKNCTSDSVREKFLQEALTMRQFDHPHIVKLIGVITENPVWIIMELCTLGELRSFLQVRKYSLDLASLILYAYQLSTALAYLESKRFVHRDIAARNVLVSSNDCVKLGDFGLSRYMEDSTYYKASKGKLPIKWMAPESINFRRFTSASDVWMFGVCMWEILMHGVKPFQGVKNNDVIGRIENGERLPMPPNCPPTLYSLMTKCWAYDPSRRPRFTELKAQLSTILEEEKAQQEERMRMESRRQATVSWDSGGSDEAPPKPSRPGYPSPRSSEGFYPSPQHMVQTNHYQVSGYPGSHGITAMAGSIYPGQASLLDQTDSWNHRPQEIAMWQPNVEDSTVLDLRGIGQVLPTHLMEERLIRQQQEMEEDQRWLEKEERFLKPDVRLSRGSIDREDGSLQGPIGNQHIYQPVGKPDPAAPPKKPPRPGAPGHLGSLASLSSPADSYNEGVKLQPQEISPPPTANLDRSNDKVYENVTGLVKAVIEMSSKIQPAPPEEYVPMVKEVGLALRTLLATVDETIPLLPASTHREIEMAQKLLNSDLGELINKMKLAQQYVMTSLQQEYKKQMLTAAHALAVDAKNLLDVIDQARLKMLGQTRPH
off-target kinases (Homo sapiens, UniProt P10721, T670I), sequence (P10721 26-976 T670I): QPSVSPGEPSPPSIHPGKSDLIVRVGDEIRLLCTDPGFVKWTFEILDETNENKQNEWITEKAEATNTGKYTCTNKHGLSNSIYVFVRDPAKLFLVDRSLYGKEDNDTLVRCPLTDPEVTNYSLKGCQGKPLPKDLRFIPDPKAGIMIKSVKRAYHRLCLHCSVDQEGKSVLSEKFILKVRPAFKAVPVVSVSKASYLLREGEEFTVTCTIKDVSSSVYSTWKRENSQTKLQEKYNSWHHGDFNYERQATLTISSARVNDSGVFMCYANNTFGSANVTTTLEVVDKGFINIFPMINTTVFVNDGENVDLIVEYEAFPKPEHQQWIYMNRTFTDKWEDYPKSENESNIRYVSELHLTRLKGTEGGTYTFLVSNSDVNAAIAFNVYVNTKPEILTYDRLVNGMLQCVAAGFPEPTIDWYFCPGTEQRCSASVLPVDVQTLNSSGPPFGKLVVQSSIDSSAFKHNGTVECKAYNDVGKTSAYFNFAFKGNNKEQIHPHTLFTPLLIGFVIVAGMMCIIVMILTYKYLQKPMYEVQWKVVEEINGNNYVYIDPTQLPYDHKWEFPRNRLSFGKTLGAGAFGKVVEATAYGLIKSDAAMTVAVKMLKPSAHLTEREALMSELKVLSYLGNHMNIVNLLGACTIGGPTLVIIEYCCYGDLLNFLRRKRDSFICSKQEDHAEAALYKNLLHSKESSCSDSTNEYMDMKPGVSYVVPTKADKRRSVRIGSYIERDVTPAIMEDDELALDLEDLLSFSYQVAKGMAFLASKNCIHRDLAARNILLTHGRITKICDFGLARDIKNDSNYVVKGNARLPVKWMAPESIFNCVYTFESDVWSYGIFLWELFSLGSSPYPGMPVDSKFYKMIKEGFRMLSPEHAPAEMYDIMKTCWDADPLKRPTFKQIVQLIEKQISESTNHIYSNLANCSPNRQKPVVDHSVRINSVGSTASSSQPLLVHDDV
off-target kinases (Homo sapiens, UniProt P42336), sequence (P42336 whole entry): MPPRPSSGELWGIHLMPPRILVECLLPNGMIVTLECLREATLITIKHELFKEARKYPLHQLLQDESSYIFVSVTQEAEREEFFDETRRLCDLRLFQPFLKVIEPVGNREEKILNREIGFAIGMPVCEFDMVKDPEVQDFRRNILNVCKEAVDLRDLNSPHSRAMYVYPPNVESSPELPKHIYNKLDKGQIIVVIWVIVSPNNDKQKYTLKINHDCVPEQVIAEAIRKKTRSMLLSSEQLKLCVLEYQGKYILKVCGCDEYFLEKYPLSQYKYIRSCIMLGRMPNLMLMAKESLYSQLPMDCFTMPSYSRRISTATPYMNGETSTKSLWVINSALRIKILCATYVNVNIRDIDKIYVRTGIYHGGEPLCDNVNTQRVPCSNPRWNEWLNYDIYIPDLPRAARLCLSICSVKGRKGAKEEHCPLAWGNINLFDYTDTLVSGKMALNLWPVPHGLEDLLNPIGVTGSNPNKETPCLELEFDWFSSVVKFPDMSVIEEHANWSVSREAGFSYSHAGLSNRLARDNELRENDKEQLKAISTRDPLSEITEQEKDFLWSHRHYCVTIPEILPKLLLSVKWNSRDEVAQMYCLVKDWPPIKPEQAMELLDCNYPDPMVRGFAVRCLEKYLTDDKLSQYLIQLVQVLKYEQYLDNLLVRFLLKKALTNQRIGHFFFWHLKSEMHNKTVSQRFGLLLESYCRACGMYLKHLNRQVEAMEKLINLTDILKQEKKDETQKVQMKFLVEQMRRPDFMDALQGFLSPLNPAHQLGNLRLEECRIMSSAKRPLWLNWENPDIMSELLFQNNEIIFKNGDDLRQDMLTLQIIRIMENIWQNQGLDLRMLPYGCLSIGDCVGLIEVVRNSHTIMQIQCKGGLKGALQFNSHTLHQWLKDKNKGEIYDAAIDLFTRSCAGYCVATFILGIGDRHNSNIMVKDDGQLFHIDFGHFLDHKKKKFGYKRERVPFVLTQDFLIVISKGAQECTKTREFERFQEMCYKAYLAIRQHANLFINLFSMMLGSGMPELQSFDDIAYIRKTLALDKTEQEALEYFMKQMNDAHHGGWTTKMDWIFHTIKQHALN

In the case of `N#Cc1cc(-c2ncnc(Nc3ccc(N4CCN(C5COC5)CC4)cc3)n2)ccc1OC1CCOCC1` [Compound 1, 5-(4-((4-(4-(oxetan-3-yl)piperazin-1-yl)phenyl)amino)-1,3,5-triazin-2-yl)-2-((tetrahydro-2H-pyran-4-yl)oxy)benzonitrile], the “% Inhibition 1” value at off-target kinases [1] is listed as −5%. Also, at off-target kinases [1], the “% Inhibition 2” value is on record as −4%. Also, the “% Inhibition Avg” value at off-target kinases [1] was −5%. The inhibition stood at 16% on off-target kinases [2] (read-out: % Inhibition 1); 21% on off-target kinases [2] (read-out: % Inhibition 2); 18% at off-target kinases [2] (read-out: % Inhibition Avg); 83% at off-target kinases [3] (read-out: % Inhibition 1); 81% on off-target kinases [3] (read-out: % Inhibition 2); 82% on off-target kinases [3] (read-out: % Inhibition Avg). In addition, the inhibition at off-target kinases [4] (read-out: % Inhibition 1) amounted to 0%; on off-target kinases [4] (read-out: % Inhibition 2), 2%; at off-target kinases [4] (read-out: % Inhibition Avg) it was 1%; on off-target kinases [5] (read-out: % Inhibition 1), 94%; on off-target kinases [5] (read-out: % Inhibition 2), 84%; at off-target kinases [5] (read-out: % Inhibition Avg), 89%. For the same compound, the inhibition amounted to 6% on off-target kinases [6] (read-out: % Inhibition 1), 7% at off-target kinases [6] (read-out: % Inhibition 2) and 6% on off-target kinases [6] (read-out: % Inhibition Avg).

Values taken from patent US11572590B2, “Methods for evaluating tumor cell spheroids using 3D microfluidic cell culture device” (Dana-Farber Cancer Institute, Inc., priority 2017, dated 2023).
